Assay results taken from PMC4468427, “Antiviral activity of silymarin against chikungunya virus” (Scientific Reports, 2015).
Converted amounts (≈) assume the structure as drawn. “Also recorded” adds a separate entry of the source. Where two headings read alike, the source gives them in different places.

How the values were obtained:
[1] = MTS cytotoxicity assay on BHK-21 cells; conditions: hamster
[2] = test system: BHK-21 cells; test: MTS cytotoxicity assay on BHK-21 cells; conditions: BHK-21 cells, MTS assay, 2 days; more than 95% of treated cells viable
[3] = test system: Vero cells; test: MTS cytotoxicity assay on Vero cells; conditions: Vero cells, MTS assay, 2 days; more than 95% of treated cells viable
[4] = MTS cytotoxicity assay on Vero cells; conditions: African green monkey
[5] = test system: CHIKV; test: Primary screening: CPE inhibition assay (confirmed by MTS) in CHIKV-infected Vero cells; conditions: for Antiviral activity in CPE inhibition and MTS assays: MOI = 1, 48 h; for CPE inhibitory activity: highest concentrations (tested as high as 200 μg/ml), MOI = 1, 48 hpi
[6] = test system: CHIKV; test: Post-entry virus yield assay, CHIKV RNA copy number by qRT-PCR; conditions: for Inhibitory effect against CHIKV replication (RNA copy number): virus yield assay, qRT-PCR, Vero cells
[7] = test system: CHIKV replicon; parameters: method as in PMID 22205980; conditions: previous study, cited from earlier work

Question: Which results are given for `O=c1c(O)c(-c2ccc(O)cc2)oc2cc(O)cc(O)c12` [Kaempferol]?
Answer: CC50 at 2 days [1]: 537 µg/mL (≈ 1880 µM); MNTD (maximum non-toxic dose) [2]: >200 µg/mL; MNTD (maximum non-toxic dose) [3]: >400 µg/mL; CC50 at 48 h [4]: > 1000 µg/mL; Antiviral activity in CPE inhibition and MTS assays [5]: neither kaempferol nor quercetin showed significant antiviral activity; CPE inhibitory activity [5]: 25%; Inhibitory effect against CHIKV replication (RNA copy number) [6]: neither kaempferol nor quercetin showed any significant inhibitory effect; also recorded: no significant inhibitory effect

Question: What does the source list for `COc1cc(C2Oc3cc([C@H]4Oc5cc(O)cc(O)c5C(=O)[C@@H]4O)ccc3OC2CO)ccc1O` (stereo partly shown) [Silybin]?
Answer: MNTD (maximum non-toxic dose) [3]: >50 µg/mL; CC50 at 48 h [4]: > 200 µg/mL; IC50 ([7]; converted from μM): approximately 30 μg/ml; IC50 ([7]; read-out: IC50): 59.8 µM; IC50 ([6]; Chikungunya virus, Vero): 69.7 µg/mL (≈ 144 µM)

Question: Which CC50 at 2 days [1] does the source give for `O=c1c(O)c(-c2ccc(O)c(O)c2)oc2cc(O)cc(O)c12` [Quercetin] here?
Answer: Its CC50 at 2 days is over 800 µg/mL.

Question: And the “MNTD (maximum non-toxic dose)” value [2]?
Answer: The value was over 500 µg/mL.

Question: What about the “MNTD (maximum non-toxic dose)” value [3] of the same molecule?
Answer: Its value is over 400 µg/mL.

Question: What about the CC50 at 48 h [4] of the same molecule?
Answer: The CC50 at 48 h was over 1000 µg/mL.

Question: What about the “Antiviral activity in CPE inhibition and MTS assays” value [5] of the same molecule?
Answer: The value was “neither kaempferol nor quercetin showed significant antiviral activity”.

Question: What about the CPE inhibitory activity [5] of the same molecule?
Answer: The CPE inhibitory activity was 25%.

Question: What about the “Inhibitory effect against CHIKV replication (RNA copy number)” value [6] of the same molecule?
Answer: Its value is “neither kaempferol nor quercetin showed any significant inhibitory effect; also recorded: no significant inhibitory effect”.
